Measured values published in ChEMBL document CHEMBL4028852, “Design of a Chemical Probe for the Bromodomain and Plant Homeodomain Finger-Containing (BRPF) Family of Proteins” (J Med Chem, 2017).

Assays:
Peregrin (Homo sapiens) = molecular target: T1, Peregrin (Homo sapiens) (UniProt P55201)
T1 sequence (whole entry): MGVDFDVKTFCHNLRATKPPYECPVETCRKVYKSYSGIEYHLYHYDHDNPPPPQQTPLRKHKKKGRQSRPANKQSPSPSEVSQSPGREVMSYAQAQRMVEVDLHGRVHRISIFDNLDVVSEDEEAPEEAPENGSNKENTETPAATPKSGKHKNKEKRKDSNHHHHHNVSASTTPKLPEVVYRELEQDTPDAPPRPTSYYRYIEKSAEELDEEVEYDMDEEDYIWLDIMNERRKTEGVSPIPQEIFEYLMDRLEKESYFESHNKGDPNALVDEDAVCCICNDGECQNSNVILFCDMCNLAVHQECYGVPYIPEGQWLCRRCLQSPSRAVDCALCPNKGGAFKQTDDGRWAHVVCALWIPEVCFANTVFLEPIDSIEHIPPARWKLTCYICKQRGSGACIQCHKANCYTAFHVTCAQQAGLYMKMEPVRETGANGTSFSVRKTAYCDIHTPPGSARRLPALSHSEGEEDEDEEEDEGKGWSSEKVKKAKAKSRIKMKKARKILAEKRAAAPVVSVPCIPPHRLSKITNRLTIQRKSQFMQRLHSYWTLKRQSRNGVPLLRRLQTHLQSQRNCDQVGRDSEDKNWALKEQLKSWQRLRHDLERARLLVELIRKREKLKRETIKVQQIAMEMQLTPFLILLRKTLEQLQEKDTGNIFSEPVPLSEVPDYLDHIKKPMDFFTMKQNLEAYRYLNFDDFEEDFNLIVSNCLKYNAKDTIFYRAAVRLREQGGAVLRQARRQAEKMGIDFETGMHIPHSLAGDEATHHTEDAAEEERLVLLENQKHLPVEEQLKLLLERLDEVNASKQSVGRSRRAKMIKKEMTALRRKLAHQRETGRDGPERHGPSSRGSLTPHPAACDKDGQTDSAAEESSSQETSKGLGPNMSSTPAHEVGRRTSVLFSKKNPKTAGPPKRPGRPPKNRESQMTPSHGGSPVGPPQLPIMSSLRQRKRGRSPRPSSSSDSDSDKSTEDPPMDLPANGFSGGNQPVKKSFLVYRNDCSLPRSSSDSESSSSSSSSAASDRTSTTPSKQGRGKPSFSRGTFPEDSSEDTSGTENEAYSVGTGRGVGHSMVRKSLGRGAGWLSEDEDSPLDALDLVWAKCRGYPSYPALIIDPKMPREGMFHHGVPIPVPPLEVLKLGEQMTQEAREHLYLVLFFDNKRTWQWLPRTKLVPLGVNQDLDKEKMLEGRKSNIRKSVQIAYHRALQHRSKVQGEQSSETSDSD
Description: Binding affinity to BRPF1 (unknown origin) assessed as change in melting temperature at 10 uM by differential scanning fluorimetry based thermal shift assay

[1] = molecular target: T2, Bromodomain-containing protein 1 (Homo sapiens, UniProt O95696); assay: Inhibition of human BRPF2 (556 to 688 residues) expressed in Escherichia coli BL21 after 1 hr by BROMOscan assay
T2 sequence (O95696 whole entry): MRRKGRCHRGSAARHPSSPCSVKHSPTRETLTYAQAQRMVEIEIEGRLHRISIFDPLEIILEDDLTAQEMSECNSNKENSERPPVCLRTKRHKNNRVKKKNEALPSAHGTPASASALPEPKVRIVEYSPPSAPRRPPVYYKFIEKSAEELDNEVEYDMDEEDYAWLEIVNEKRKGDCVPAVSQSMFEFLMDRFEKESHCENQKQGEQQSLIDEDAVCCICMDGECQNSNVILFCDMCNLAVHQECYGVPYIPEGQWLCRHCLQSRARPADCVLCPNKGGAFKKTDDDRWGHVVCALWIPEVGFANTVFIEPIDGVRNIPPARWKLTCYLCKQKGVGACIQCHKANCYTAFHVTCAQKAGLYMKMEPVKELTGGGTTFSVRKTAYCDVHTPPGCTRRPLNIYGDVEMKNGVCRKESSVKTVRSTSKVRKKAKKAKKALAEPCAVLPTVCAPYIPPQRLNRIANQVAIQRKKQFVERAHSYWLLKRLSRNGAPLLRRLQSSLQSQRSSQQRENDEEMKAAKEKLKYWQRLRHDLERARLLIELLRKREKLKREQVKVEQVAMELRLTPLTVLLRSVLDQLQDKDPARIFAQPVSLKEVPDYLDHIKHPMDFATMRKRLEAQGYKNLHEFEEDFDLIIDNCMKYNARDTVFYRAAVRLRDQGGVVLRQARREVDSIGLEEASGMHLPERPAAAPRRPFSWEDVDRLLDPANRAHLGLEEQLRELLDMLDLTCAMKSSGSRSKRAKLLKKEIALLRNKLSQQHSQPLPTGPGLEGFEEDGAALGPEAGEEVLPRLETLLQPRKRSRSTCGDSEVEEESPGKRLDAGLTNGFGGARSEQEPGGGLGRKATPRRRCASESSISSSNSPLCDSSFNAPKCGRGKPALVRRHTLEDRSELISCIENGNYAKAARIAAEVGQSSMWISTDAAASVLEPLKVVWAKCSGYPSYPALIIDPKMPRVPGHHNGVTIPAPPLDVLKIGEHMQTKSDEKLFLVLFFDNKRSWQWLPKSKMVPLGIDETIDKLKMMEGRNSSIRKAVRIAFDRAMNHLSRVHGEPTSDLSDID

Peregrin = molecular target: T3, Peregrin (Homo sapiens, UniProt P55201); assay: Inhibition of human BRPF1 (627 to 740 residues) expressed in Escherichia coli BL21 after 1 hr by BROMOscan assay
T3 sequence (P55201 whole entry): T1 sequence (whole entry)

[2] = molecular target: T4, Bromodomain and PHD finger-containing protein 3 (Homo sapiens, UniProt Q9ULD4); assay: Inhibition of human BRPF3 (588 to 701 residues) expressed in Escherichia coli BL21 after 1 hr by BROMOscan assay
T4 sequence (Q9ULD4 whole entry): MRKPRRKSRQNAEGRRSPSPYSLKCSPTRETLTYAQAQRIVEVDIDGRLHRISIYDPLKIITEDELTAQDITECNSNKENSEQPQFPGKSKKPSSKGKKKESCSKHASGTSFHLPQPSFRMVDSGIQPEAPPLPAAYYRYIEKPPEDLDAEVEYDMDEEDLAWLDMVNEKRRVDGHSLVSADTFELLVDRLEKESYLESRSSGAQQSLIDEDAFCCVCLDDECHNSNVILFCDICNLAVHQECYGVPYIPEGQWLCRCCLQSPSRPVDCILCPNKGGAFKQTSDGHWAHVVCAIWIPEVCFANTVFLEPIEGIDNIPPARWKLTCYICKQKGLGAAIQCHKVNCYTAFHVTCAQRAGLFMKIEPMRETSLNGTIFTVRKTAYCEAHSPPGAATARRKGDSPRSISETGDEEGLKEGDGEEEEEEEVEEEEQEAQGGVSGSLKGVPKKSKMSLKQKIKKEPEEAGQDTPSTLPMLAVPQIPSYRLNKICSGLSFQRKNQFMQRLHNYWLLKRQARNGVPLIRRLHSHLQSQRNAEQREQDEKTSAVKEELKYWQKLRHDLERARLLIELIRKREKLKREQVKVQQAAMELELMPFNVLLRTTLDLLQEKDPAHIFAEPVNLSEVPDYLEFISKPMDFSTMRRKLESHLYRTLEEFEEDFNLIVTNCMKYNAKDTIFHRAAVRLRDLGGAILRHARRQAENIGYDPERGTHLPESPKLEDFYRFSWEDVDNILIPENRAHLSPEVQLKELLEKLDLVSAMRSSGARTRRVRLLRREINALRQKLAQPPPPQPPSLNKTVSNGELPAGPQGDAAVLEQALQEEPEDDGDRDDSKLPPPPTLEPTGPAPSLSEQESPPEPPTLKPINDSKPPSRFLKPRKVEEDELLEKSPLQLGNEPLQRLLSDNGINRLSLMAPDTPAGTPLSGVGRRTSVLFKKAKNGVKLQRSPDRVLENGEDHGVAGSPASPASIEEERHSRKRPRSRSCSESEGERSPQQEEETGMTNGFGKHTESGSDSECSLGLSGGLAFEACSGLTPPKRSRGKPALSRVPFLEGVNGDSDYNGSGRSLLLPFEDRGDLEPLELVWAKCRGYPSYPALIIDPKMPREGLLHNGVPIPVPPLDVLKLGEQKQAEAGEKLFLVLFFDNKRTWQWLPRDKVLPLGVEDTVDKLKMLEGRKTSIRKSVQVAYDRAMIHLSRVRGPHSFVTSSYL

[3] = molecular target: Bromodomain-containing protein 4 (Homo sapiens, UniProt O60885); assay: Inhibition of human BRD4 isoform long bromodomain 1 (44 to 168 residues) expressed in Escherichia coli BL21 after 1 hr by BROMOscan assay
[4] = Inhibition of cell proliferation of human RERF-LC-Sq1 cells after 72 hrs by MTS assay; format: functional; settings: RERF-LC-Sq1, 72 h
[5] = Inhibition of cell proliferation of human HRA19 cells after 72 hrs by MTS assay; format: functional; settings: HRA19, 72 h
DMS-114 = assay: Inhibition of cell proliferation of human DMS114 cells after 72 hrs by MTS assay; format: functional; settings: DMS-114, 72 h
NCI-H1703 = assay: Inhibition of cell proliferation of human NCI-H1703 cells after 72 hrs by MTS assay; format: functional; settings: NCI-H1703, 72 h
[6] = molecular target: T5, Bromodomain-containing protein 9 (Homo sapiens, UniProt Q9H8M2)
T5 sequence (Q9H8M2 whole entry): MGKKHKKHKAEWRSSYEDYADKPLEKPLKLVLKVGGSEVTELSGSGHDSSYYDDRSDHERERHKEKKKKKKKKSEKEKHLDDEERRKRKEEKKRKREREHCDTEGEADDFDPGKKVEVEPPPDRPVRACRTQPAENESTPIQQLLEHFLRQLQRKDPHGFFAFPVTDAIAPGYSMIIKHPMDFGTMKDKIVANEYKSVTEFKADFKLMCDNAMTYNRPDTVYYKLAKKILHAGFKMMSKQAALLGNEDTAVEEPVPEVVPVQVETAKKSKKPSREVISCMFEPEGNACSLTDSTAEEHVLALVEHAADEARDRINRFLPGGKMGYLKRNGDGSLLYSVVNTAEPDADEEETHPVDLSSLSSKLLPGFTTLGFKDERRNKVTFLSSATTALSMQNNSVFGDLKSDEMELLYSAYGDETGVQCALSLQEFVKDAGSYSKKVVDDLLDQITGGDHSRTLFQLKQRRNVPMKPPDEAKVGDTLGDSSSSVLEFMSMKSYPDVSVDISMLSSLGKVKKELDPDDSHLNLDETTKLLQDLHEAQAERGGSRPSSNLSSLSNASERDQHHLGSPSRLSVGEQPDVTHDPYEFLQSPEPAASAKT
Description: Inhibition of human BRD9 (130 to 259 residues) expressed in Escherichia coli BL21 after 1 hr by BROMOscan assay

Row | SMILES | ΔTm (Peregrin (Homo sapiens)) [°C] | further results
1 | COc1cc(C#N)ccc1S(=O)(=O)N(C)c1ccc2c(c1)cc(C)c(=O)n2C | 7.1 | 
2 | COc1cc(C#N)ccc1S(=O)(=O)Nc1cc(F)c2c(c1)cc(C)c(=O)n2C | 6.8 | IC50 [1]: 510 nM; IC50 (Peregrin): 12 nM; IC50 [2]: 10000 nM
3 | Cn1c(=O)ccc2cc(NS(=O)(=O)C3CCCCC3)ccc21 | 3.9 | 
4 | Cn1c(=O)ccc2cc(NS(=O)(=O)c3ccc(C#N)cc3)ccc21 | 5.2 | 
5 | Cn1c(=O)ccc2cc(NS(C)(=O)=O)ccc21 | 1.4 | 
6 | COc1cc2c(ccc(=O)n2C)cc1N(C)S(=O)(=O)c1ccc(C#N)cc1 |  | IC50 (Peregrin): 1000 nM
7 | CCS(=O)(=O)Nc1ccc2c(ccc(=O)n2C)c1 | 1.8 | 
8 | COc1cc2c(ccc(=O)n2C)cc1NS(=O)(=O)c1ccc(C#N)cc1 | 5.6 | IC50 [3]: > 10000 nM
9 | COc1ccccc1S(=O)(=O)Nc1ccc2c(c1)cc(C)c(=O)n2C | 10.2 | 
10 | Cn1c(=O)ccc2cc(NS(=O)(=O)c3ccccc3C#N)ccc21 | 2.4 | 
11 | CC(C)c1cc2cc(NS(=O)(=O)c3ccc(C#N)cc3)ccc2n(C)c1=O |  | IC50 [1]: 14000 nM; IC50 (Peregrin): 870 nM; IC50 [2]: 16000 nM
12 | Cn1c(=O)ccc2cc(NS(=O)(=O)c3cccc(C#N)c3)ccc21 | 4.4 | 
13 | CN(c1ccc2c(ccc(=O)n2C)c1)S(=O)(=O)c1ccc(C#N)cc1 | 1.8 | 
14 | Cn1c(=O)ccc2cc(NS(=O)(=O)C3CC3)ccc21 | 1.9 | 
15 | Cc1cc2cc(NS(=O)(=O)c3ccc(C#N)cc3)ccc2n(C)c1=O | 9.7 | GI50 [4]: 17100 nM; GI50 [5]: 15600 nM; GI50 (DMS-114): 16600 nM; GI50 (NCI-H1703): > 30000 nM
16 | COc1cc(C#N)ccc1S(=O)(=O)N(c1ccc2c(c1)cc(C)c(=O)n2C)C(C)C |  | IC50 (Peregrin): 160 nM
17 | COc1cc2c(ccc(=O)n2C)cc1NS(=O)(=O)c1ccccc1 | 6.3 | 
18 | CCc1cc2cc(NS(=O)(=O)c3ccc(C#N)cc3OC)ccc2n(CC)c1=O |  | IC50 [1]: 4400 nM; IC50 (Peregrin): 250 nM; IC50 [2]: 4600 nM
19 | COc1cc2c(cc1NS(=O)(=O)c1ccc(C#N)cc1OC)cc(C)c(=O)n2C | 12.7 | IC50 [3]: 1700 nM
20 | Cn1c(=O)ccc2cc(NS(=O)(=O)c3ccccc3)ccc21 | 5.3 | IC50 [6]: 2200 nM
21 | CC(C)S(=O)(=O)Nc1ccc2c(ccc(=O)n2C)c1 | 2.2 | 
22 | COc1cc2c(cc1NS(=O)(=O)c1ccc(C#N)cc1)cc(C)c(=O)n2C | 8.8 | 
23 | Cc1cc(=O)n(C)c2ccc(NS(=O)(=O)c3ccc(C#N)cc3)cc12 | 4.3 | 
24 | CCc1cc2cc(NS(=O)(=O)c3ccc(C#N)cc3)ccc2n(CC)c1=O |  | IC50 [3]: > 100000 nM
25 | CCc1cc2cc(NS(=O)(=O)c3ccc(C#N)cc3OC)ccc2n(C)c1=O | 8 | IC50 (Peregrin): 93 nM
26 | CCN(c1ccc2c(c1)cc(C)c(=O)n2C)S(=O)(=O)c1ccc(C#N)cc1OC |  | IC50 (Peregrin): 110 nM
27 | Cn1c(=O)ccc2cc(S(=O)(=O)Nc3ccc(C#N)cc3)ccc21 | 3.1 | IC50 [2]: 2200 nM
28 | CCc1cc2cc(NS(=O)(=O)c3ccc(C#N)cc3)ccc2n(C)c1=O | 5.6 | 
29 | COc1cc2c(cc1NS(=O)(=O)c1ccccc1)cc(C)c(=O)n2C | 9.4 | 
